Where a name gives a salt, the structure may show the parent alone.
Key:
SK-MEL-3 tumor cells = assay: Method C: Cell Growth Inhibition Assay (CellTiter-Glo), SK-MEL-3; format: cell-based; settings: Homo sapiens, SK-MEL3, 72 h, 3 days, 4-parameter fit
Method: (§1) Human breast tumor cells (BT474) were cultured in RPMI (Mediatech 50-011-PB), containing 10% FBS (JRH Biosciences 12176) and 1% penicillin-streptomycin (Invitrogen 15140). Human head and neck tumor cells (HN5) were cultured in high glucose DMEM (Mediatech 50-013-PB) containing 10% FBS and 1% penicillin-streptomycin. Human colon tumor cells (Colo205) were cultured in RPMI (Mediatech 50-020-PB) containing 10% FBS and 1% penicillin-streptomycin. Human melanoma cancer cells (SK-MEL-28) were cultured in EMEM with nonessential amino acids (Mediatech 50-011-PB) containing 10% FBS, 1% sodium pyruvate (JT Baker 3354-04), and 1% penicillin-streptomycin. Human melanoma cancer cells (A375P F11s) were cultured in RPMI (Mediatech 50-020-PB) containing 10% FBS, 1% sodium pyruvate, and 1% penicillin-streptomycin. Human colon cancer cells (HT-29) were cultured in high glucose DMEM (Mediatech 50-013-PB) containing 10% FBS and 1% penicillin-streptomycin. Human melanoma cancer cells (SK-MEL-3) were cultured in McCoy's 5A (50-025-PB) containing 15% FBS, and 1% penicillin-streptomycin. All cell lines were maintained at 37° C. in a humidified 5% CO2, 95% air incubator. Cells were harvested using trypsin/EDTA (Invitrogen 25200), counted using an haemocytometer, and plated. For 96-well assays (using white full-area NUNC plates cat. #136102), cells were plated in 105 μL at the following densities (cells/well): HN5, 500; Colo205, 500; SK-MEL-28, 500; A375P-F11s, 500; HT-29, 500; SK-MEL-3, 500; and BT474, 3000. For 384-well assays (white full-area NUNC plates, cat. #781080), cells were plated in 48 μL at the following densities (cells/well): HN5, 500; Colo205, 500; SK-MEL-28, 500; A375P-F11s, 500; HT29, 500; SK-MEL-3, 500; and BT474, 2000.
(§2) The next day, compounds were diluted as follow: For 96-well assays, 13.5 μL of compound in DMSO were diluted using nine (9) serial 1:3 dilutions of 4.5 μL in 9 μL of DMSO. Medium (270 μl/well of RPMI with 10% FBS and 1% penicillin-streptomycin) was added to the plates. Aliquots (7 μl) were added to cells in the final assay giving a final DMSO concentration of 0.2%. For 384-well assays, 15 μL of compound in DMSO were diluted using nine (9) serial 1:3 dilutions of 5 μL in 10 μL of DMSO, followed by a further dilution of 5 μL of compound with 95 μL of medium, of which 2 μL were added to cells in the final assay giving a final DMSO concentration of 0.2%. Cells were incubated at 37° C., 5% CO2 for 3 days.
(§3) Total ATP was measured (as a surrogate estimate of cell number) using CellTiter-Glo® reagent (Promega G7571). Briefly, plates were removed from the incubator and allowed to equilibrate to room temperature for 30 minutes. CellTiter-Glo® (25 μL or 55 μL for 384-well or 96-well assays, respectively) reagent was added to each well and plates were shaken on an orbital plate shaker for 2 mins. Plates were incubated without shaking for a further 30 mins and read on an LJL Analyst GT reader in luminometer mode with an integration time of 0.5 seconds per well. Percent inhibition of cell growth was calculated relative to DMSO vehicle-treated control wells. Concentration of compound required to give 50% inhibition of vehicle-treated control cell growth (IC50) was interpolated using a 4-parameter fit for determining IC50 using the following equation: Y=A+((B−A)/(1+((C/X)̂D))) where X=IC50.

EGFR = target: T1, EGFR (Homo sapiens, UniProt P00533); assay: EGFR substrate phosphorylation assay (HTRF); format: biochemical; settings: Method (A): Enzyme Mix incubated with compound at 20° C. for 1 hr, reaction started by adding Substrate Mix
T1 construct: made in house; host or cells: baculovirus expression system
T1 sequence (P00533 25-1210): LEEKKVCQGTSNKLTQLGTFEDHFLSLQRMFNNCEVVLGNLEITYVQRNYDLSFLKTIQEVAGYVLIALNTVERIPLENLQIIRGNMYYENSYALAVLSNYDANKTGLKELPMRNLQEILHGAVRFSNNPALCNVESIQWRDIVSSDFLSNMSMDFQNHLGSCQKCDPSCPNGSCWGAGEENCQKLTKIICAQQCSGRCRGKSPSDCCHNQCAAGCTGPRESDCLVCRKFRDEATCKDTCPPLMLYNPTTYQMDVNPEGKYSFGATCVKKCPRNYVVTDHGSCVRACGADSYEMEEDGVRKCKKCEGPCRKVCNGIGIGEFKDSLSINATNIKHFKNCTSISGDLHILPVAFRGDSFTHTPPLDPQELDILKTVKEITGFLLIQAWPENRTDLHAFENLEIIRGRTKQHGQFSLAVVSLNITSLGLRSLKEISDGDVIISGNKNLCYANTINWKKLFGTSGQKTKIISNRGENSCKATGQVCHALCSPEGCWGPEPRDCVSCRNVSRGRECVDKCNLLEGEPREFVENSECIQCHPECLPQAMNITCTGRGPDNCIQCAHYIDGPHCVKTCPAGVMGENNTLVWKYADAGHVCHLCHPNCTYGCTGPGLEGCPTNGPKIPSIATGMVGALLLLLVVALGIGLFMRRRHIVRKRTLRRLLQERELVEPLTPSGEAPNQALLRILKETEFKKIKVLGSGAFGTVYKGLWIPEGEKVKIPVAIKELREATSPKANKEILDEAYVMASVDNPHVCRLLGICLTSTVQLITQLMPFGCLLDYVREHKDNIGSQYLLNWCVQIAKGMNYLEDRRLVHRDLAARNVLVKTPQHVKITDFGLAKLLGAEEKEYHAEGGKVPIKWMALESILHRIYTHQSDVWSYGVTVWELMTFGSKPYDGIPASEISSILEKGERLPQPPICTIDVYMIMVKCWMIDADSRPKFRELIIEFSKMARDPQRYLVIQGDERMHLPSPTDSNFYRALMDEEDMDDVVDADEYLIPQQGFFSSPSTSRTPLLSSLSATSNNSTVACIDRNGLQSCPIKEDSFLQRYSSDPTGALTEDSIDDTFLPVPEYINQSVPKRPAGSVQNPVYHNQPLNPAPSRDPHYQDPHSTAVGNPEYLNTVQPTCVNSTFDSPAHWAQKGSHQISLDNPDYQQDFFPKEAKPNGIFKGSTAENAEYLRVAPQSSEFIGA
How it was run: (§4)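 Baculovirus-expressed kinase (0.8 nM EGFR or 10 nM ErbB2 in enzyme mix) with Peptide C 0.8 μM and ATP 20 μM (substrate-mix levels), MOPS pH 7.5, MnCl2; 90 min, 20 °C, HTRF anti-phosphotyrosine. Method A adds 1 h enzyme–compound preincubation; B none. pIC50, final compound 0.00027–47.6 μM.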

Colo205 tumor cells = assay: Method C: Cell Growth Inhibition Assay (CellTiter-Glo), Colo205; format: cell-based; settings: Homo sapiens, COLO 205, 72 h, 3 days, 4-parameter fit
How it was run: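 Luminescent ATP signal (CellTiter-Glo, after 30 min room-temperature equilibration) served as a surrogate for cell number after a 3-day compound exposure at 37° C. Cells were plated at 500/well and treated with serially diluted compound at 0.2% DMSO. IC50 values are 4-parameter fits against DMSO-treated wells.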

A375P F11s tumor cells = assay: Method C: Cell Growth Inhibition Assay (CellTiter-Glo), A375P F11s; format: cell-based; settings: Homo sapiens, 72 h, 3 days, 4-parameter fit
Method: as §1, §2, §3

ErbB2 = target: T2, ErbB2 (Homo sapiens, UniProt P04626); assay: ErbB-2 substrate phosphorylation assay (HTRF); format: biochemical; settings: Method (A): Enzyme Mix incubated with compound at 20° C. for 1 hr, reaction started by adding Substrate Mix
T2 construct: made in house; host or cells: baculovirus expression system
T2 sequence (P04626 23-1255): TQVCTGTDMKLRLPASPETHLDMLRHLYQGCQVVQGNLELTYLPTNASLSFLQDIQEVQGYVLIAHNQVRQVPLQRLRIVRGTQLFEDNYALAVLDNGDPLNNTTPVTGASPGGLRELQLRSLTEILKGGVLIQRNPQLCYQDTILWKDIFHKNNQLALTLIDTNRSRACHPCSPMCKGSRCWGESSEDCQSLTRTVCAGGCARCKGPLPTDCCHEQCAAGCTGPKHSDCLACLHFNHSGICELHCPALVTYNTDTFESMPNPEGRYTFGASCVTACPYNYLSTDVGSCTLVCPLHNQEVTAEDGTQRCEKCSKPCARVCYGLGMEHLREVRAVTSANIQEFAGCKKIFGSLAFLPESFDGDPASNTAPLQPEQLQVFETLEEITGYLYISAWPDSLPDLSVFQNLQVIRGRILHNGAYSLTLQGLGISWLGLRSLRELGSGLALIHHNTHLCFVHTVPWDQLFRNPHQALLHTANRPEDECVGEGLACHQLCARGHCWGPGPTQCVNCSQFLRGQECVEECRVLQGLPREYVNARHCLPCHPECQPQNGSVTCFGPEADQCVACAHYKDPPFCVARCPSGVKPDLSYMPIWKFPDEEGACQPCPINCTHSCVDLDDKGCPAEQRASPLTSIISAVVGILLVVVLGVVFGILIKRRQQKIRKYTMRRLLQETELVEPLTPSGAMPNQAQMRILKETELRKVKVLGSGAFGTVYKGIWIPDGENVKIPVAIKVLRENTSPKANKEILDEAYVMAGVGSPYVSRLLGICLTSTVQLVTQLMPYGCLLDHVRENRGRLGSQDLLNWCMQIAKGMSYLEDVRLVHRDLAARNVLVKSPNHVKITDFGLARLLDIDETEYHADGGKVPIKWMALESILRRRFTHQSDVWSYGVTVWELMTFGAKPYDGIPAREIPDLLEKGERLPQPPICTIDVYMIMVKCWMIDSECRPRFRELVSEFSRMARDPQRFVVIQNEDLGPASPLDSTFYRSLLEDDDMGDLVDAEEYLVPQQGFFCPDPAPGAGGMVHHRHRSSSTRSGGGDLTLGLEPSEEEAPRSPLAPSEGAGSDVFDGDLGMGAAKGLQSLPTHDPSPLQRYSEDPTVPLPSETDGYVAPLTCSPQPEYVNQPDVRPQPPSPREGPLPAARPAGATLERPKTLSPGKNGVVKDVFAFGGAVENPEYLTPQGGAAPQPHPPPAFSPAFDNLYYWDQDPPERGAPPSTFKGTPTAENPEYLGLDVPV
How it was run: as §4

HT-29 tumor cells = assay: Method C: Cell Growth Inhibition Assay (CellTiter-Glo), HT-29; format: cell-based; settings: Homo sapiens, HT-29, 72 h, 3 days, 4-parameter fit
Method: as §1, §2, §3

SK-MEL-28 tumor cells = assay: Method C: Cell Growth Inhibition Assay (CellTiter-Glo), SK-MEL-28; format: cell-based; settings: Homo sapiens, SK-MEL-28, 72 h, 3 days, 4-parameter fit
How it was run: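 Growth inhibition is expressed as the concentration giving 50% inhibition relative to vehicle controls, derived from a 4-parameter fit. Tumor cells plated at 500 per well were exposed for 3 days to compound (0.2% DMSO) before total ATP was quantified by CellTiter-Glo.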

BT474 tumor cells = assay: Method C: Cell Growth Inhibition Assay (CellTiter-Glo), BT474; format: cell-based; settings: Homo sapiens, BT-474, 72 h, 3 days, 4-parameter fit
HN5 tumor cells = assay: Method C: Cell Growth Inhibition Assay (CellTiter-Glo), HN5; format: cell-based; settings: Homo sapiens, 72 h, 3 days, 4-parameter fit
Method: as §1, §2, §3

| Structure (SMILES) | IC50 (SK-MEL-3 tumor cells) | IC50 (EGFR) | IC50 (Colo205 tumor cells) | IC50 (A375P F11s tumor cells) | IC50 (ErbB2) | IC50 (HT-29 tumor cells) | IC50 (SK-MEL-28 tumor cells) | IC50 (BT474 tumor cells) | IC50 (HN5 tumor cells) |
| --- | --- | --- | --- | --- | --- | --- | --- | --- | --- |
| CCNc1nc(-c2cccc(NC(=O)c3c(F)cccc3F)c2)c(-c2ccnc(Nc3ccc(CCN4CCCC4)c(F)c3)n2)s1 [Example 26, N-(3-{2-(Ethylamino)-5-[2-({3-fluoro-4-[2-(1-pyrrolidinyl)ethyl]phenyl}amino)-4-pyrimidinyl]-1,3-thiazol-4-yl}phenyl)-2,6-difluorobenzamide trifluoroacetate] | 100 to 1000 nM | < 100 nM | 100 to 1000 nM | 100 to 1000 nM | < 100 nM | 100 to 1000 nM | 100 to 1000 nM | 100 to 1000 nM | 100 to 1000 nM |
| COCCNc1nc(-c2cccc(NC(=O)c3c(F)cccc3F)c2)c(-c2ccnc(Nc3ccc(OCCN4CCCC4)c(Cl)c3)n2)s1 [Example 27, N-[3-(5-{2-[(3-Chloro-4-{[2-(1-pyrrolidinyl)ethyl]oxy}phenyl)amino]-4-pyrimidinyl}-2-{[2-(methyloxy)ethyl]amino}-1,3-thiazol-4-yl)phenyl]-2,6-difluorobenzamide] | 100 to 1000 nM | < 100 nM | 100 to 1000 nM | 100 to 1000 nM | < 100 nM | 100 to 1000 nM | 100 to 1000 nM | < 100 nM | < 100 nM |
| O=C(Nc1cccc(-c2nc(NCCCN3CCOCC3)sc2-c2ccnc(Nc3cccc(CN4CCCC4)c3)n2)c1)c1c(F)cccc1F [Example 28, 2,6-Difluoro-N-{3-[2-{[3-(4-morpholinyl)propyl]amino}-5-(2-{[3-(1-pyrrolidinylmethyl)phenyl]amino}-4-pyrimidinyl)-1,3-thiazol-4-yl]phenyl}benzamide] | 100 to 1000 nM | < 100 nM | 100 to 1000 nM | 100 to 1000 nM | < 100 nM | 100 to 1000 nM | 100 to 1000 nM | < 100 nM | 100 to 1000 nM |
| COc1ccc(Nc2nccc(-c3sc(NC4CC4)nc3-c3cccc(NC(=O)c4c(F)cccc4F)c3)n2)cc1OCCN(C)C [Example 32, N-{3-[2-(cyclopropylamino)-5-(2-{[3-{[2-(dimethylamino)ethyl]oxy}-4-(methyloxy)phenyl]amino}-4-pyrimidinyl)-1,3-thiazol-4-yl]phenyl}-2,6-difluorobenzamide] | 100 to 1000 nM | < 100 nM | 100 to 1000 nM | 100 to 1000 nM | < 100 nM | 100 to 1000 nM | 100 to 1000 nM | 100 to 1000 nM | < 100 nM |
| CN(C)CCOc1ccc(Nc2nccc(-c3sc(N(C)C)nc3-c3cccc(NC(=O)c4c(F)cccc4F)c3)n2)cc1Cl [Example 37, N-{3-[5-{2-[(3-Chloro-4-{[2-(dimethylamino)ethyl]oxy}phenyl)amino]-4-pyrimidinyl}-2-(dimethylamino)-1,3-thiazol-4-yl]phenyl}-2,6-difluorobenzamide] | > 1000 nM | < 100 nM | 100 to 1000 nM | 100 to 1000 nM | < 100 nM | 100 to 1000 nM | 100 to 1000 nM | 100 to 1000 nM | 100 to 1000 nM |
| CN1CCc2ccc(Nc3nccc(-c4sc(N(C)C)nc4-c4cccc(NC(=O)c5c(F)cccc5F)c4)n3)cc2C1 [Example 38] | 100 to 1000 nM | < 100 nM | 100 to 1000 nM | 100 to 1000 nM | < 100 nM | 100 to 1000 nM | 100 to 1000 nM | 100 to 1000 nM | < 100 nM |

Continued, values first:

| IC50 (SK-MEL-3 tumor cells) | IC50 (EGFR) | IC50 (Colo205 tumor cells) | IC50 (A375P F11s tumor cells) | IC50 (ErbB2) | IC50 (HT-29 tumor cells) | IC50 (SK-MEL-28 tumor cells) | IC50 (BT474 tumor cells) | IC50 (HN5 tumor cells) | Structure (SMILES) |
| --- | --- | --- | --- | --- | --- | --- | --- | --- | --- |
| 100 to 1000 nM | < 100 nM | 100 to 1000 nM | 100 to 1000 nM | < 100 nM | 100 to 1000 nM | 100 to 1000 nM | < 100 nM | < 100 nM | CNc1nc(-c2cccc(NC(=O)c3c(F)cccc3F)c2)c(-c2ccnc(Nc3ccc(OCCN(C)C)c(Cl)c3)n2)s1 [Example 24, N-{3-[5-{2-[(3-Chloro-4-{[2-(dimethylamino)ethyl]oxy}phenyl)amino]-4-pyrimidinyl}-2-(methylamino)-1,3-thiazol-4-yl]phenyl}-2,6-difluorobenzamide] |
| 100 to 1000 nM | < 100 nM | 100 to 1000 nM | 100 to 1000 nM | < 100 nM | 100 to 1000 nM | 100 to 1000 nM | 100 to 1000 nM | 100 to 1000 nM | CCNc1nc(-c2cccc(NC(=O)c3c(F)cccc3F)c2)c(-c2ccnc(Nc3ccc(OCCN(C)C)c(Cl)c3)n2)s1 [Example 25] |
| 100 to 1000 nM | < 100 nM | 100 to 1000 nM | 100 to 1000 nM | < 100 nM | 100 to 1000 nM | > 1000 nM | 100 to 1000 nM | < 100 nM | CN1CCc2ccc(Nc3nccc(-c4sc(NCCCN5CCOCC5)nc4-c4cccc(NC(=O)c5c(F)cccc5F)c4)n3)cc2C1 [Example 31] |
| 100 to 1000 nM | < 100 nM | 100 to 1000 nM | 100 to 1000 nM | < 100 nM | 100 to 1000 nM | 100 to 1000 nM | < 100 nM | 100 to 1000 nM | O=C(Nc1cccc(-c2nc(NC3CC3)sc2-c2ccnc(Nc3ccc(OCCN4CCCC4)c(F)c3)n2)c1)c1c(F)cccc1F [Example 33, N-[3-(2-(Cyclopropylamino)-5-{2-[(3-fluoro-4-{[2-(1-pyrrolidinyl)ethyl]oxy}phenyl)amino]-4-pyrimidinyl}-1,3-thiazol-4-yl)phenyl]-2,6-difluorobenzamide] |
| 100 to 1000 nM | < 100 nM | 100 to 1000 nM | 100 to 1000 nM | < 100 nM | 100 to 1000 nM | 100 to 1000 nM | < 100 nM | < 100 nM | CC(=O)Nc1nc(-c2cccc(NC(=O)c3c(F)cccc3F)c2)c(-c2ccnc(Nc3cccc(CN4CCCC4)c3)n2)s1 [Example 34, N-{3-[2-(Acetylamino)-5-(2-{[3-(1-pyrrolidinylmethyl)phenyl]amino}-4-pyrimidinyl)-1,3-thiazol-4-yl]phenyl}-2,6-difluorobenzamide] |
| > 1000 nM | < 100 nM | 100 to 1000 nM | > 1000 nM | < 100 nM | 100 to 1000 nM | > 1000 nM | < 100 nM | < 100 nM | CN(C)CCOc1ccc(Nc2nccc(-c3sc(N(C)C)nc3-c3cccc(NC(=O)c4c(F)cccc4F)c3)n2)cc1 [Example 36, N-[3-(2-(Dimethylamino)-5-{2-[(4-{[2-(dimethylamino)ethyl]oxy}phenyl)amino]-4-pyrimidinyl}-1,3-thiazol-4-yl)phenyl]-2,6-difluorobenzamide] |

Reference: patent publication US20110098296A1, “Thiazole And Oxazole Kinase Inhibitors” (priority 2007, published 2011)
